Measurements from article PMC9714824, “Hexapeptides from mammalian inhibitory hormone hunt activate and inactivate nematode reproduction” (PLOS ONE, 2022).

How the values were obtained:
Caenorhabditis elegans = details: cited from earlier work
Description: As a control compound there was synthesized EPL030, having the aa sequence KLKMNGKNIEPVFT. This is a scrambling of EPL001’s sequence, based on cards drawn at random by one of us (CRM). […] The figures for fecundity were EPL001 +43 ... || Returning to EPL030, the scrambled-sequence EPL001 comparator, this has engendered perplexity by displaying the same activity as EPL001 across multiple mammalian systems. Thus, EPL030 suppressed human prostate cancer cells in vitro more than EPL001 in two laboratories and the proliferation of rat bone marrow cells in vitro in a third.

rat bone marrow cells = assay: Bone marrow cell assay, time-lapse cell counts over 24h; type: cell-based
Description: The method has been described previously at length. Bone marrow cells, consisting of various cell types including mesenchymal stem cells and fibroblasts, were cultured from adult male rats (Rattus norvegicus, SD strain). These cells were passaged from a growing primary stock in a T75 tissue culture flask (Sarstedt) into a 48 well tissue culture plate (IWAKI), with a cell density of 1 x 10^5/ml. The cell culture media, henceforth referred to as ‘supplemented a-MEMS,’ comprised α-MEMS media supplemented with 10% FCS and 1% penicillin/streptomycin (all Life Technologies, Carlsbad, CA, US). On the day of peptide addition to the cells, the supplemented α-MEMS was gently removed and fresh supplemented α-MEMS added, with 10% test material by volume to achieve micromolar concentrations, untreated controls receiving just fresh supplemented α-MEMS. (For dose levels see legends in respective result figures) All samples were filter sterilised using a Millex-GV […] syringe filter unit (Merck, Kenilworth, NJ, USA). The cells were imaged for 24 h using an incubated Zeiss Axiovert 135M microscope with a Prior Proscan II motorised stage, at 37 °C with a 5% CO2 in air feed. Each well of the 48-well tissue culture plate was then imaged for 24h every 5 min using Metamorph software (MDS Analytical Technologies, Wokingham, UK), with each well having four fields of view. The viability and cell numbers were reviewed by analysing the images captured over the 24h period and cell counts were taken at selected time points using the Metamorph software.
Fig 6 Bone marrow cells in culture exposed to long peptides. Cells were counted over 24h after exposure to the 14mer peptide EPL001 or its scrambled-sequence control EPL030 at 6μM final concentration or to the 20mer EPL120 at 5μM final concentration, compared to peptide-untreated controls.
Fig 7 Bone marrow cells in culture exposed to hexapeptides. Cells were counted over 24h after exposure to either EPL016 (= MKPLTG, the ‘Front 6’ of the 14mer EPL001) or EPL036 (= IEPVFT, the ‘Back 6’ of EPL030, the scrambled-sequence control of EPL001) at 1μM final concentration, compared to peptide-untreated controls.

Steinernema siamkayai [1] = assay: Steinernema siamkayai reproduction and development on lipid agar plates with hexapeptides; type: in vivo; set-up: key to Infective juveniles / Adults: counts per plate, scaled from 0.05 ml subsamples to 20 ml; details: for Infective juveniles / Adults: S3 Table 2
Description: (§1) The attempt was made here to replicate prior fecundity work in another species of nematode, the entomopathogenic (insect slaying) Steinernema siamkayai. Species confirmation involved standard morphological and molecular techniques (S3 File, Nematodes). S. siamkayai is a biocontrol agent of potential economic significance in global agriculture, reducing the need for pesticides. Crucial for deployment is the production of ‘infective juveniles’. These forms penetrate the larvae of insect pests, releasing a bacterium, Xenorhabdus spp., which ultimately kills the larvae. Stock solutions (5 mg mL^-1) of EPL036 (IEPVFT) and EPL630 (KLKMNG) were made up and stored at −20 °C. Lipid Agar plates were prepared by pouring 5 ml media in 60 mm plastic Petri dishes. The plates were inoculated with an overnight-grown bacterial culture of Xenorhabdus spp. (10^9 cfu/ml) at 100 μl/plate and incubated at 28 °C for 24h. Xenorhabdus bacteria are symbiotically associated with S. siamkayai. While multiplying, Xenorhabdus metabolises the constituents of the lipid agar and the resulting by-products are the food supplement for the nematodes that triggers the worms to grow and multiply. From the stock solutions, peptides were introduced individually into the centre of the Lipid Agar plates with Xenorhabdus lawn. Two concentrations of peptide were used, 4 and 8 μL of the 5 mg mL^-1 stock peptide solutions (making 20 and 40 μg of peptide per plate in total, respectively, i.e. ~6 and ~12 μM). Each peptide solution was uniformly spread using an L shaped spreader and allowed to absorb into the agar plate for 10 minutes. Nematodes were harvested beforehand as follows. Third-stage infective juveniles (IJs) of S. siamkayai were used to infect fourth instar Galleria larvae. Following larval death, the Galleria cadavers were placed on a White’s Trap to harvest fresh progeny within 5–6 days. After storage in sterile water, these new-generation IJs were concentrated and inoculated on the bacterial plates on Day 1 at 500 and 1000 IJs /plate. The eight treatments (two inocula at two peptide concentrations) and two controls (two inocula without peptides) were replicated (x3) and incubated at 28 °C. Observations of behaviour and morphology were made at intervals throughout the study, then on Day 5 (i.e. after 4 units of 24h) the nematodes were harvested. Two ml of distilled water was poured on each Petri dish and gently stirred to release the nematodes from the surface. The surface washings containing suspended nematodes were collected in a standard volume of 20 ml of distilled water. The number of mature adults (male and female) and the second-generation juveniles (J1, J2, J3 and pre-adults) were counted using a dissecting microscope (x10 magnification, 4 fields) in 0.05 ml subsamples (x3) and multiplied up to the standard volume of 20 ml.
Fig 2 Developmental impact on Steinernema siamkayai of hexapeptides after 4 days. INOCULUM = founding population of infective juveniles (IJs). ‘Infective juveniles’ on the vertical axis are mostly second-generation IJs. Peptides applied at the start of the study were EPL036 = IEPVFT, […] = KLKMNG. Total = Adults + Infective juveniles. Data are mean +/- SEM (average of 3 replicates). Statistical analysis: ANOVA. Control bars are doubly represented for ease of comparison. Note different vertical axes. […]

Steinernema siamkayai [2] = assay: Nematode pilot study fecundity (S3 Table 1); type: in vivo; details: inoculum 5 IJs
Description: as §1
Mean number of A) Infective juveniles and B) Adults following inoculation of Petri dishes treated with EPL036 and EPL630 at 4 µL and 8 µL and an untreated control; Petri dishes were initially inoculated with 5 infective juveniles of Steinernema siamkayai following the method used in the main manuscript (Single way ANOVA presented beneath each data set).

PNT2 cells = assay: MTS colorimetric viable cell assay, PNT2; type: cell-based, human; details: 30 μM, 27h, 492 nm, triplicate
Description: (§2) Assays involving a range of peptides from 14mer down to 6mers assessed total viable PC3 or PNT2 cells using a 96-well plate MTS colorimetric assay (CellTiter 96 Aqueous One Solution Cell Proliferation Assay, Promega, Southampton, UK), with absorbance measured at 492 nm. Cells were seeded at 8,000 per well and grown for 27h. Peptides were administered at the outset to a final concentration of 30 μM (in 2 μl) to samples in triplicate. (A higher dosage was used than in the 14mer peptides study to shorten the timecourse of response.) Controls received buffer. Data are OD mean +/ − SEM, with statistical analysis by two tailed t-test. A time course study of the 14mers on PC3s, using the same technique, involved measurements at 24h and 48h.
(§3) Fig 5 Effects of a range of peptides on human prostate cancer cell growth in vitro. Assays involved a range of peptides from 14mers down to 6mers (Table 1), with viable cells assessed using a 96-well plate MTS colorimetric assay. Absorbance measured at 492 nm. Cells were seeded at 8,000 per well and grown for 27h. Peptides were administered at the outset to a final concentration of 30 μM (in 2 μl) to samples in triplicate. Controls received buffer. Data are OD mean +/- SEM, with statistical analysis by two tailed t-test. * p<0.05; **p<0.025.

DU145 cells = assay: MTS viable cell assay, DU145 (Epistem); type: cell-based, human; details: DU145, 72h
Description: Further assays on human prostate cancer cells were conducted at a contract research organisation (Epistem, Manchester, UK). LNCaP or DU145 cells seeded at 3,000 cells/well across a 96-well plate were cultured in RPMI (phenol red free), 10% FCS, 1% sodium pyruvate, Pen/strep and L-glutamine for 24h before exposure to peptides, at a single dose level in the case of LNCaPs or multiple dose levels in the case of DU145s. (For dose levels see Results.) Controls received vehicle (1% PBS). For the DU145s peptide administration was repeated after 24h. 72h after the first administration (DU145s) or only administration (LNCaP) total viable cell numbers were measured colorimetrically (MTS) using a CellTiter 96 AQueous One Solution Cell Proliferation Assay (Promega, Southampton, UK), following manufacturer’s instructions. Briefly, the media on the plates was replaced with the CellTiter reagent diluted 1:5 in DMEM. The plates were returned to the incubator for 3 hours before reading absorbance at 492 nm on a FLUORstar OPTIMA (BMG Labtech). CellTiter data are the absorbance minus background values (CellTiter plus DMEM), expressed as (OD mean +/− SEM). Statistical analysis was by ANOVA, Dunnett’s multiple comparisons test.

PC3 cells = assay: MTS colorimetric viable cell assay, PC3; type: cell-based, human; details: PC3; 30 μM; 27h; MTS, 492 nm; triplicate
Description: as §2, §3

[3] = 4 µL, inoculum 1000, mean of 3 reps
[4] = 8 µL, inoculum 1000, mean of 3 reps

## IEPVFT [EPL036, IEPVFT, EPL030 Back 6]
Caenorhabditis elegans
  Increase in cumulative offspring vs untreated controls: +79%
Rat bone marrow cells; 1μM final concentration, in words (Fig 7)
  Effect on bone marrow cells in culture: cytostatic
Steinernema siamkayai [1]; 4 µL, inoculum 500, mean of 3 reps
  Infective juveniles: 7482
Steinernema siamkayai [1]; [3]
  Adults: 446
  Infective juveniles: 13686
Steinernema siamkayai [1]; 8 µL, inoculum 500, mean of 3 reps
  Infective juveniles: 9644
Steinernema siamkayai [1]; [4]
  Adults: 10
  Infective juveniles: 19161
Steinernema siamkayai [1]; 8 µL, inoculum 1000, rep 1
  Infective juveniles: 19141
Steinernema siamkayai [1]; 8 µL, inoculum 1000, rep 2
  Infective juveniles: 19149
Steinernema siamkayai [1]; 8 µL, inoculum 1000, rep 3
  Infective juveniles: 19193
Steinernema siamkayai [1]; compared with untreated controls, 48h exposure (Fig 3)
  Egg production in females: visibly bloated with eggs
Steinernema siamkayai [1]; observational
  Time after incubation to fully grown males and females: 36 h
  Time for infective juveniles to transform into pre-adults: ≤ 24 h
Steinernema siamkayai [2]; 4 µL, mean of 9 reps
  Adults: 1.7
  Infective juveniles: 43.2
Steinernema siamkayai [2]; 4 µL, rep 1
  Adults: 1
Steinernema siamkayai [2]; 4 µL, rep 2
  Adults: 1
Steinernema siamkayai [2]; 4 µL, rep 3
  Adults: 2
Steinernema siamkayai [2]; 4 µL, rep 4
  Adults: 1
Steinernema siamkayai [2]; 4 µL, rep 5
  Adults: 2
Steinernema siamkayai [2]; 4 µL, rep 6
  Adults: 2
Steinernema siamkayai [2]; 4 µL, rep 7
  Adults: 2
Steinernema siamkayai [2]; 4 µL, rep 8
  Adults: 2
Steinernema siamkayai [2]; 4 µL, rep 9
  Adults: 2
Steinernema siamkayai [2]; 8 µL, mean of 9 reps
  Adults: 0
  Infective juveniles: 75.8
Steinernema siamkayai [2]; 8 µL, rep 1
  Adults: 0
Steinernema siamkayai [2]; 8 µL, rep 2
  Adults: 0
Steinernema siamkayai [2]; 8 µL, rep 3
  Adults: 0
Steinernema siamkayai [2]; 8 µL, rep 4
  Adults: 0
Steinernema siamkayai [2]; 8 µL, rep 5
  Adults: 0
Steinernema siamkayai [2]; 8 µL, rep 6
  Adults: 0
Steinernema siamkayai [2]; 8 µL, rep 7
  Adults: 0
Steinernema siamkayai [2]; 8 µL, rep 8
  Adults: 0
Steinernema siamkayai [2]; 8 µL, rep 9
  Adults: 0

## MLKTGEKPVFKNNI [EPL143, Contiguous form of sSgII-14, an anagram of EPL001; benchmark for chi-squared test]
PNT2 cells
  Difference in percentage terms between control and test OD means: −20.6%
DU145 cells; 0.15 μM
  Test mean OD vs control mean: −4.3%
DU145 cells; 150 μM (highest concentration)
  Test mean OD vs control mean: −18.7%
PC3 cells
  Difference in percentage terms between control and test OD means: −10.2%

## MLKTGEKPV [EPL901, first 9 aa of EPL143, from sSgII’s second sorting domain]
PNT2 cells
  Difference in percentage terms between control and test OD means: −28.9%
PC3 cells
  Difference in percentage terms between control and test OD means: −21.2%

## MKPLTG [EPL016, MKPLTG, EPL001 Front 6]
Caenorhabditis elegans
  Increase in cumulative offspring vs untreated controls: 50%
Rat bone marrow cells; 1μM in the medium, controls increased by about the same percentage
  Reduction of the population of rat bone marrow cells: 18%
